Source: ChEMBL document CHEMBL1129947, “(+)-7-Deaza-5'-noraristeromycin as an anti-trypanosomal agent” (J Med Chem, 1997)

Assays:
Trypanosoma brucei [1] = assay: In vitro inhibitory concentration against Trypanosoma brucei rhodesiense strain KETRI 269; format: functional, organism-based
Trypanosoma brucei [2] = assay: In vitro inhibitory concentration against Trypanosoma brucei LAB 110 EATRO test strain; format: functional, organism-based
Trypanosoma brucei [3] = assay: In vitro inhibitory concentration against Trypanosoma brucei rhodesiense strain KETRI 243-As-103; format: functional, organism-based
Adenosylhomocysteinase = Adenosylhomocysteinase (Mus musculus, UniProt P50247); assay: In vitro inhibitory concentration against purified S-Adenosyl-homocysteine hydrolase isolated from murine L929 cells
Trypanosoma brucei [4] = assay: In vitro inhibitory concentration against Trypanosoma brucei rhodesiense strain KETRI 243; format: functional, organism-based

Adenosylhomocysteinase, sequence (P50247 whole entry): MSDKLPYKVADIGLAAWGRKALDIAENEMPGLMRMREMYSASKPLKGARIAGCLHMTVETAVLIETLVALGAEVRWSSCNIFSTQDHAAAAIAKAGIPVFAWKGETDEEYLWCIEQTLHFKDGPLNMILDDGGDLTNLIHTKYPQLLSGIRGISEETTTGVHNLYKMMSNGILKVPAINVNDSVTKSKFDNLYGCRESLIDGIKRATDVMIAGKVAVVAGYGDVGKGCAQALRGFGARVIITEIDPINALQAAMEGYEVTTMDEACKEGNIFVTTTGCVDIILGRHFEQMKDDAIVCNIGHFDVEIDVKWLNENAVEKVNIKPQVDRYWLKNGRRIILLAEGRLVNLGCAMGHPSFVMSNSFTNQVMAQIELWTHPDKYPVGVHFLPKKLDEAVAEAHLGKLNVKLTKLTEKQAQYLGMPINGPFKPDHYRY

| IC50 (Trypanosoma brucei [1]) [nM] | IC50 (Trypanosoma brucei [2]) [nM] | IC50 (Trypanosoma brucei [3]) [nM] | IC50 (Adenosylhomocysteinase) [nM] | IC50 (Trypanosoma brucei [4]) [nM] | SMILES |
| --- | --- | --- | --- | --- | --- |
| 165 | 165 | 5300 | > 500000 | 165 | Nc1ncnc2c1ccn2[C@H]1C[C@@H](O)[C@H](O)[C@@H]1O |
| – | – | – | > 500000 | – | Nc1ncnc2c1ccn2[C@@H]1C[C@H](O)[C@@H](O)[C@H]1O |
